Results on 35 molecules are retold here after ChEMBL document CHEMBL3039007, “Structure-based identification of OATP1B1/3 inhibitors” (Mol Pharmacol, 2013).

As usually defined, the residual activity is the signal under treatment as a percentage of the control signal.

Starred links: 1 amine or outer side, 2 acyl side, 3 side chain; linkers in the order of their positions; H or OH if unused. Positions of bridges follow the written chain, without caps; N, C: chain ends. Non-standard residues stand in square brackets, D forms with d. Residues, ends and D or L forms follow the SMILES beside them. ξ: configuration not given here. *: point of attachment. X1 = N=C1NCCC([C@H](N[*:1])C(=O)[*:2])N1; ΔAla(Z-3-ureido) = NC(=O)N/C=C(\N)C(=O)O; ξβ3hOrn = NCCCC(N)CC(=O)*; Dap = NC[C@H](N)C(=O)O

Series [1] concerns the target T1, Solute carrier organic anion transporter family member 1B3 (Homo sapiens, UniProt Q9NPD5).
T1 sequence (Q9NPD5 whole entry): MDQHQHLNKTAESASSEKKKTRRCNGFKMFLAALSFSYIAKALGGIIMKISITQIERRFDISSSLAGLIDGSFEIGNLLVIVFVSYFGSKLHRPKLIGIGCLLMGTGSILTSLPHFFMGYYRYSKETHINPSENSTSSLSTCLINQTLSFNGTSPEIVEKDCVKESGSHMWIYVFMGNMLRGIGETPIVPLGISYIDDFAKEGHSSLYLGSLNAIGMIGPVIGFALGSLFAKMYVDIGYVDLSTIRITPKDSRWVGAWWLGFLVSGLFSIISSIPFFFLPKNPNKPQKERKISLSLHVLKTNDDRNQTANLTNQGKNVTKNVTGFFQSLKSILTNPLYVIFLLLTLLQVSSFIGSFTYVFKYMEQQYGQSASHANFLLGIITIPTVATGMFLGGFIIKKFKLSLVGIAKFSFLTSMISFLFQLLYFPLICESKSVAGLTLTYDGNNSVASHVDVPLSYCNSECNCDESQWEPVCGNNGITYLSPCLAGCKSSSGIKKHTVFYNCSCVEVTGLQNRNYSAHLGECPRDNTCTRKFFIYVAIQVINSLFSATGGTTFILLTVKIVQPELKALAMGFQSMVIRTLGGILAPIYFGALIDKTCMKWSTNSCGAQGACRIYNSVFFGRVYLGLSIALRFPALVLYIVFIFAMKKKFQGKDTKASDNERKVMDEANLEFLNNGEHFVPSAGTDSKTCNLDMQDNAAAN
Conditions: chinese hamster, cho, 10 µM.

The target in series [2] is T2, Solute carrier organic anion transporter family member 1B1 (Homo sapiens, UniProt Q9Y6L6).
T2 sequence (Q9Y6L6 whole entry): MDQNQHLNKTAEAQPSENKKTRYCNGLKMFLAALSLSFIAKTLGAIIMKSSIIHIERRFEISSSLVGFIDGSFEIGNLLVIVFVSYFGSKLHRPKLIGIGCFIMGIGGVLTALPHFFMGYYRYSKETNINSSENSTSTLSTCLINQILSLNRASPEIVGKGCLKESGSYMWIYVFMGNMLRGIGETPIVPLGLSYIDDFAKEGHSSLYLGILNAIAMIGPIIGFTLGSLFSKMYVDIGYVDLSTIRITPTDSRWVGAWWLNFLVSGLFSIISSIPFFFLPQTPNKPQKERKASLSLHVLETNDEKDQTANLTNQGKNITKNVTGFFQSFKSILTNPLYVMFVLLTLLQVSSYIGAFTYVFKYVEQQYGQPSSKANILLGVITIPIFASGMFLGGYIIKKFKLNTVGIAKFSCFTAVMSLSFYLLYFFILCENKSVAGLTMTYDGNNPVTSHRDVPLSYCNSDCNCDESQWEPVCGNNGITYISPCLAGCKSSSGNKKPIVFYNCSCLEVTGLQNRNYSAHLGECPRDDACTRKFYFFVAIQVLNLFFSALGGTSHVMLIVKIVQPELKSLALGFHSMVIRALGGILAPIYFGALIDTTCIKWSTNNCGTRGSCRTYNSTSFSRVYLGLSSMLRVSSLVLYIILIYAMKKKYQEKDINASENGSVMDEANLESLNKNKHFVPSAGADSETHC
The note with it: chinese hamster, cho, 10 µM.

For `C[C@@H]1NC(=O)[C@@H](N)CNC(=O)[C@H](C2CCNC(=N)N2)NC(=O)/C(=C/NC(N)=O)NC(=O)[C@H](CNC(=O)CC(N)CCCN)NC1=O.N=C1NCCC([C@@H]2NC(=O)/C(=C/NC(N)=O)NC(=O)[C@H](CNC(=O)CC(N)CCCN)NC(=O)[C@H](CO)NC(=O)[C@@H](N)CNC2=O)N1.O=S(=O)(O)O.O=S(=O)(O)O` (stereo partly drawn) [CAPREOMYCIN SULFATE] (H-[Dap]S[Dap](ξβ3hOrn)[ΔAla(Z-3-ureido)][X1]; lactam 1-C), the residual activity in series [1] was found to be 80.84%; in series [2] it was 89.76%.

For the molecule `CC1=C(/C=C/C(C)=C/C=C/C(C)=C/C=C/C=C(C)/C=C/C=C(C)/C=C/C(=O)[C@]2(C)C[C@@H](O)CC2(C)C)C(C)(C)C[C@H](O)C1` [CAPSANTHIN], the residual activity came out at 102.1% in series [1] and 79.45% in series [2].

`C[C@H](CS)C(=O)N1CCC[C@H]1C(=O)O` [CAPTOPRIL]: the residual activity in series [1] was determined as 105.2%; in series [2], 167%.

Take `COC(=O)C[C@H]1C(C)(C)C(=O)[C@@H]2CC3C4=CC(=O)O[C@@H](c5ccoc5)[C@]4(C)CC[C@@H]3[C@@]1(C)C2=O` (stereo not given in full) [CARAPIN]: the figures for the residual activity in series [1] and in series [2] were 66.49% and 20.92%, respectively.

As to `C[N+](C)(C)CCOC(N)=O.[Cl-]` [CARBACHOL], the residual activity in series [1] is 105.7%; in series [2], 120.9%.

With `COC(=O)N/N=C/c1c[n+]([O-])c2ccccc2[n+]1[O-]` [CARBADOX], the figures for the residual activity in series [1] and in series [2] were 107.6% and 84.43%, respectively.

With `NC(=O)N1c2ccccc2C=Cc2ccccc21` [CARBAMAZEPINE], the residual activity is 99.43% in series [1] and 121.6% in series [2].

In the case of `CC1(C)S[C@@H]2[C@H](NC(=O)C(C(=O)[O-])c3ccccc3)C(=O)N2[C@H]1C(=O)[O-].[Na+].[Na+]` (stereo not given in full) [CARBENICILLIN DISODIUM], the figures for the residual activity in series [1] and in series [2] were 100.7% and 108.5%, respectively.

Regarding `CC1(C)[C@@H](OC(=O)CCC(=O)[O-])CC[C@]2(C)[C@H]3C(=O)C=C4[C@@H]5C[C@@](C)(C(=O)[O-])CC[C@]5(C)CC[C@@]4(C)[C@]3(C)CC[C@@H]12.[Na+].[Na+]` [CARBENOXOLONE SODIUM], the residual activity in series [1] came to 14.47%; in series [2] it was 15.44%.

For `CCN(CC)CCOCCOC(=O)C1(c2ccccc2)CCCC1.O=C(O)CC(O)(CC(=O)O)C(=O)O` [CARBETAPENTANE CITRATE], the residual activity in series [1] was found to be 97.23%; in series [2], 86.24%.

In the case of `C[C@@](Cc1ccc(O)c(O)c1)(NN)C(=O)O.O` [CARBIDOPA], the residual activity in series [1] stood at 113.1%; in series [2] it was 134.5%.

`CCOC(=O)n1ccn(C)c1=S` [CARBIMAZOLE]: the residual activity in series [1] is on record as 101.8%; in series [2], 114.4%.

For the molecule `CN(C)CCOC(c1ccc(Cl)cc1)c1ccccn1.O=C(O)/C=C\C(=O)O` (stereo not given) [CARBINOXAMINE MALEATE], the residual activity in series [1] turned out to be 96.23%; in series [2], 85.11%.

As to `CNC(=O)Oc1cccc2c1OC(C)(C)C2` [CARBOFURAN], the residual activity in series [1] was 111.1%; in series [2], 100.9%.

In the case of `CCCC(C)(COC(N)=O)COC(=O)NC(C)C` (stereo not given) [CARISOPRODOL], the residual activity in series [1] is 103.8%; in series [2] it was 106%.

Regarding `Cc1c(C(=O)O)c(O)cc2c1C(=O)c1c(O)c([C@@H]3O[C@H](CO)[C@@H](O)[C@H](O)[C@H]3O)c(O)c(O)c1C2=O` [CARMINIC ACID], the results for the residual activity in series [1] and in series [2] were 121.9% and 21.61%, respectively.

With `CCCCCCNC(=O)n1cc(F)c(=O)[nH]c1=O` [CARMOFUR], the figures for the residual activity in series [1] and in series [2] were 98.17% and 107%, respectively.

With `NCCC(=O)N[C@@H](Cc1cnc[nH]1)C(=O)O` [CARNOSINE], the residual activity in series [1] came out at 98.86%; in series [2] it was 26.44%.

Regarding `CC(C(=O)O)c1ccc2c(c1)[nH]c1ccc(Cl)cc12` (stereo not given) [CARPROFEN], the residual activity in series [1] is given as 77.78%; in series [2], 47.72%.

For `CC(=O)Oc1cc(OC(C)=O)c2c(c1)O[C@H](c1ccc(OC(C)=O)c(OC(C)=O)c1)[C@@H](OC(C)=O)C2` [CATECHIN PENTAACETATE], the residual activity was 104.9% in series [1] and 82.47% in series [2].

For `O=C(Oc1cc(OC(=O)c2ccccc2)c2c(c1)O[C@H](c1ccc(OC(=O)c3ccccc3)c(OC(=O)c3ccccc3)c1)[C@@H](OC(=O)c1ccccc1)C2)c1ccccc1` [CATECHIN PENTABENZOATE], the residual activity in series [1] is on record as 118.6%; in series [2], 113.2%.

On to `COc1cc(O)c(C(=O)c2ccccc2)cc1O` [CEAROIN], for which the residual activity in series [1] is given as 120.9%; in series [2], 91.48%.

In the case of `CC1(C)C(=O)C=C[C@@]2(C)C1=C(O)C(=O)[C@]1(C)[C@@H]2CC[C@@]2(C)[C@H](c3ccoc3)C[C@H]3O[C@]321` [CEDRELONE], the residual activity in series [1] worked out at 60.66%; in series [2], 44.73%.

Regarding `C[C@@H]1CC[C@H]2C(C)(C)[C@H]3C[C@@]12CC[C@@]3(C)O` [CEDROL], the residual activity in series [1] amounted to 107.7%; in series [2] it was 119.8%.

Take `CC(=O)O[C@]1(C)CC[C@@]23C[C@H]1C(C)(C)[C@@H]2CC[C@H]3C` [CEDRYL ACETATE]: the residual activity in series [1] came to 116.5%; in series [2] it was 134%.

`N[C@@H](C(=O)N[C@@H]1C(=O)N2C(C(=O)O)=C(Cl)CS[C@H]12)c1ccccc1` [CEFACLOR ANHYDROUS]: the residual activity is recorded as 114.4% in series [1] and 84.74% in series [2].

In the case of `CC1=C(C(=O)O)N2C(=O)[C@@H](NC(=O)[C@H](N)c3ccc(O)cc3)[C@H]2SC1` [CEFADROXIL], the residual activity is 101.2% in series [1] and 88.52% in series [2].

Turning to `Cn1nnnc1SCC1=C(C(=O)[O-])N2C(=O)[C@@H](NC(=O)[C@H](OC=O)c3ccccc3)[C@H]2SC1.[Na+]` [CEFAMANDOLE NAFATE], the residual activity in series [1] stood at 64.97%; in series [2] it was 63%.

Regarding `Cc1nnc(SCC2=C(C(=O)[O-])N3C(=O)[C@@H](NC(=O)Cn4cnnn4)[C@H]3SC2)s1.[Na+]` [CEFAZOLIN SODIUM], the values for the residual activity in series [1] and in series [2] were 95.92% and 84.25%, respectively.

For the molecule `CO/N=C(\C(=O)N[C@@H]1C(=O)N2C(C(=O)OCOC(=O)C(C)(C)C)=C(/C=C\c3scnc3C)CS[C@H]12)c1csc(N)n1` [CEFDITOREN PIVOXIL], the residual activity is recorded as 82.75% in series [1] and 64.03% in series [2].

As to `CO[C@@]1(NC(=O)CSCC#N)C(=O)N2C(C(=O)[O-])=C(CSc3nnnn3C)CS[C@@H]21.[Na+]` [CEFMETAZOLE SODIUM], the residual activity is listed as 108.6% in series [1] and 123.3% in series [2].

`CO/N=C(\C(=O)N[C@@H]1C(=O)N2C(C(=O)[O-])=C(COC(C)=O)CS[C@H]12)c1csc(N)n1.[Na+]` [CEFOTAXIME SODIUM]: the residual activity in series [1] came out at 119.2%; in series [2], 104.1%.

In the case of `CO[C@@]1(NC(=O)Cc2cccs2)C(=O)N2C(C(=O)[O-])=C(COC(N)=O)CS[C@@H]21.[Na+]` [CEFOXITIN SODIUM], the values for the residual activity in series [1] and in series [2] were 82.79% and 68.58%, respectively.

Take `NC(=O)c1cc[n+](CC2=C(C(=O)[O-])N3C(=O)[C@@H](NC(=O)[C@@H](c4ccccc4)S(=O)(=O)[O-])[C@H]3SC2)cc1.[Na+]` [CEFSULODIN SODIUM]: the residual activity in series [1] was found to be 101.2%; in series [2], 91.84%.

For the molecule `Nc1nc(/C(=C/CC(=O)O)C(=O)N[C@@H]2C(=O)N3C(C(=O)O)=CCS[C@H]23)cs1` [CEFTIBUTEN], the values for the residual activity in series [1] and in series [2] were 84.47% and 90.54%, respectively.
